# Measurements reported in PubChem BioAssay (NCI).
#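 Cultured in 96-well plates, cells were exposed to test compound for 48 hours across five concentrations. TGI is the concentration that stops growth completely.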
# What was measured:
# Assay in all cases: NCI-60 cell line screen, 48 h
# [1] = test system: 786-0 renal
# [2] = test system: A498 renal
# [3] = test system: A549 NSCLC
# [4] = test system: ACHN renal
# [5] = test system: BT-549 breast
# [6] = test system: CCRF-CEM leukemia
# [7] = test system: COLO 205 colon
# [8] = test system: DU-145 prostate
# [9] = test system: EKVX NSCLC
# [10] = test system: HCC-2998 colon
# [11] = test system: HCT-116 colon
# [12] = test system: HCT-15 colon
# [13] = test system: HL-60(TB) leukemia
# [14] = test system: HOP-62 NSCLC
# [15] = test system: HOP-92 NSCLC
# [16] = test system: HS 578T breast
# [17] = test system: HT29 colon
# [18] = test system: K-562 leukemia
# [19] = test system: KM12 colon
# [20] = test system: LOX IMVI melanoma
# [21] = test system: M14 melanoma
# [22] = test system: MCF7 breast
# [23] = test system: MDA-MB-231 breast
# [24] = test system: MDA-MB-435
# [25] = test system: MDA-N
# [26] = test system: MOLT-4 leukemia
# [27] = test system: NCI-H226 lung
# [28] = test system: NCI-H23 lung
# [29] = test system: NCI-H460 lung
# [30] = test system: NCI-H522 lung
# [31] = test system: NCI/ADR-RES ovarian
# [32] = test system: OVCAR-3 ovarian
# [33] = test system: OVCAR-5 ovarian
# [34] = test system: OVCAR-8 ovarian
# [35] = test system: PC-3 prostate
# [36] = test system: RPMI-8226 leukemia
# [37] = test system: SF-268 CNS
# [38] = test system: SF-295 CNS
# [39] = test system: SF-539 CNS
# [40] = test system: SK-MEL-2 melanoma
# [41] = test system: SK-MEL-28 melanoma
# [42] = test system: SN12C renal
# [43] = test system: SNB-19 CNS
# [44] = test system: SNB-75 CNS
# [45] = test system: SR leukemia
# [46] = test system: SW-620 colon
# [47] = test system: T-47D breast
# [48] = test system: TK-10 renal
# [49] = test system: U251 CNS
# [50] = test system: UACC-257 melanoma
# [51] = test system: UO-31 renal
# [52] = test system: CAKI-1 renal
# [53] = test system: IGROV1 ovarian
# [54] = test system: MALME-3M melanoma
# [55] = test system: OVCAR-4 ovarian
# [56] = test system: SK-MEL-5 melanoma
# [57] = test system: SK-OV-3 ovarian
# [58] = test system: UACC-62 melanoma
structure (smiles),measurement,setting,value
CCOP(=O)(OCC)/C(C#N)=C/c1nccn1C,TGI,[1],> 100 µM
same,TGI,[2],> 100 µM
same,TGI,[3],> 100 µM
same,TGI,[4],> 100 µM
same,TGI,[5],> 100 µM
same,TGI,[6],> 100 µM
same,TGI,[7],> 100 µM
same,TGI,[8],> 100 µM
same,TGI,[9],> 100 µM
same,TGI,[10],> 100 µM
same,TGI,[11],> 100 µM
same,TGI,[12],> 100 µM
same,TGI,[13],> 100 µM
same,TGI,[14],> 100 µM
same,TGI,[15],> 100 µM
same,TGI,[16],> 100 µM
same,TGI,[17],> 100 µM
same,TGI,[18],> 100 µM
same,TGI,[19],> 100 µM
same,TGI,[20],> 100 µM
same,TGI,[21],> 100 µM
same,TGI,[22],> 100 µM
same,TGI,[23],> 100 µM
same,TGI,[24],> 100 µM
same,TGI,[25],> 100 µM
same,TGI,[26],> 100 µM
same,TGI,[27],> 100 µM
same,TGI,[28],> 100 µM
same,TGI,[29],> 100 µM
same,TGI,[30],> 100 µM
same,TGI,[31],> 100 µM
same,TGI,[32],> 100 µM
same,TGI,[33],> 100 µM
same,TGI,[34],> 100 µM
same,TGI,[35],> 100 µM
same,TGI,[36],> 100 µM
same,TGI,[37],> 100 µM
same,TGI,[38],> 100 µM
same,TGI,[39],> 100 µM
same,TGI,[40],> 100 µM
same,TGI,[41],> 100 µM
same,TGI,[42],> 100 µM
same,TGI,[43],> 100 µM
same,TGI,[44],> 100 µM
same,TGI,[45],> 100 µM
same,TGI,[46],> 100 µM
same,TGI,[47],> 100 µM
same,TGI,[48],> 100 µM
same,TGI,[49],> 100 µM
same,TGI,[50],> 100 µM
same,TGI,[51],> 100 µM
O=C(Nc1ccc(Cl)cc1)/C(=C(/[O-])c1ccc(Br)cc1)[n+]1cccc(-c2ccc(Cl)cc2)n1,TGI,[1],14.3 µM
same,TGI,[2],> 100 µM
same,TGI,[3],> 100 µM
same,TGI,[4],46.1 µM
same,TGI,[5],9.35 µM
same,TGI,[52],6.66 µM
same,TGI,[7],> 100 µM
same,TGI,[8],> 100 µM
same,TGI,[9],19.3 µM
same,TGI,[10],24 µM
same,TGI,[11],13 µM
same,TGI,[12],51.7 µM
same,TGI,[14],29.2 µM
same,TGI,[15],> 100 µM
same,TGI,[16],9.65 µM
same,TGI,[53],14.8 µM
same,TGI,[18],> 100 µM
same,TGI,[19],9.86 µM
same,TGI,[20],> 100 µM
same,TGI,[21],18.5 µM
same,TGI,[54],11.3 µM
same,TGI,[22],3.28 µM
same,TGI,[23],> 100 µM
same,TGI,[24],25 µM
same,TGI,[25],> 100 µM
same,TGI,[26],> 100 µM
same,TGI,[28],9.04 µM
same,TGI,[29],16.5 µM
same,TGI,[30],6.83 µM
same,TGI,[31],31.6 µM
same,TGI,[32],12.9 µM
same,TGI,[55],29.4 µM
same,TGI,[33],21.7 µM
same,TGI,[34],14.2 µM
same,TGI,[35],> 100 µM
same,TGI,[36],> 100 µM
same,TGI,[37],19.5 µM
same,TGI,[38],11.2 µM
same,TGI,[40],12.3 µM
same,TGI,[41],71.1 µM
same,TGI,[56],> 100 µM
same,TGI,[57],33.7 µM
same,TGI,[42],8.44 µM
same,TGI,[43],> 100 µM
same,TGI,[44],26.1 µM
same,TGI,[45],> 100 µM
same,TGI,[46],> 100 µM
same,TGI,[47],5.14 µM
same,TGI,[48],67.8 µM
same,TGI,[49],> 100 µM
same,TGI,[50],> 100 µM
same,TGI,[58],22.8 µM
same,TGI,[51],42.6 µM
OC(Cc1ccc2ccccc2n1)(C(F)(F)F)C(F)(F)F,TGI,[1],> 10 µM
same,TGI,[2],> 10 µM
same,TGI,[3],> 10 µM
same,TGI,[4],> 10 µM
same,TGI,[5],> 10 µM
same,TGI,[52],> 10 µM
same,TGI,[6],> 10 µM
same,TGI,[7],> 10 µM
same,TGI,[8],> 10 µM
same,TGI,[9],> 10 µM
same,TGI,[10],> 10 µM
same,TGI,[11],> 10 µM
same,TGI,[12],> 10 µM
same,TGI,[14],> 10 µM
same,TGI,[15],> 10 µM
same,TGI,[16],> 10 µM
same,TGI,[17],> 10 µM
same,TGI,[53],> 10 µM
same,TGI,[18],> 10 µM
same,TGI,[19],> 10 µM
same,TGI,[20],> 10 µM
same,TGI,[21],> 10 µM
same,TGI,[54],> 10 µM
same,TGI,[22],> 10 µM
same,TGI,[23],> 10 µM
same,TGI,[24],> 10 µM
same,TGI,[25],> 10 µM
same,TGI,[26],> 10 µM
same,TGI,[28],> 10 µM
same,TGI,[29],> 10 µM
same,TGI,[30],> 10 µM
same,TGI,[31],> 10 µM
same,TGI,[32],> 10 µM
same,TGI,[55],> 10 µM
same,TGI,[33],> 10 µM
same,TGI,[34],> 10 µM
same,TGI,[35],> 10 µM
same,TGI,[36],> 10 µM
same,TGI,[37],> 10 µM
same,TGI,[38],> 10 µM
same,TGI,[39],> 10 µM
same,TGI,[41],> 10 µM
same,TGI,[56],> 10 µM
same,TGI,[57],> 10 µM
same,TGI,[42],> 10 µM
same,TGI,[43],> 10 µM
same,TGI,[44],> 10 µM
same,TGI,[45],> 10 µM
same,TGI,[46],> 10 µM
same,TGI,[47],> 10 µM
same,TGI,[48],> 10 µM
same,TGI,[49],> 10 µM
same,TGI,[50],> 10 µM
same,TGI,[58],> 10 µM
same,TGI,[51],> 10 µM
